In one data set the test system is kinase panel (403). Briefly: Kinase selectivity S35 / S1 at 10 μM. Type of data set: binding.
In the next data set the target is T1, Tyk2 enzyme (Homo sapiens, UniProt P29597).
T1 construct: purchased Life Technologies PR8440C
Briefly: In vitro enzyme assay (Cisbio kinase assay), Tyk2. Type of data set: biochemical. To be noted: ATP 300 μM; read-out: Enzymatic assay: Tyk2.

Data set [1] can be described thus: In vivo pharmacokinetic analysis in rat (iv). Also noted: species or system male Wistar Han rat. To be noted: iv 1 mg/kg. How it is done:
One male Wistar Han rat. Compound was administered intravenously to fed animal at a target dose of 1 mg/kg, dose volume: 2 mL/kg, in DMSO/hydroxypropyl-beta-cyclodextrin 20% in phosphate buffer 60 mM pH 7 (5:95). Blood samples were collected at various time points. Blood samples were then assayed using a method based upon protein precipitation with acetonitrile followed by LC/MS/MS analysis. Non-compartmental methods were used for pharmacokinetic analysis of blood concentration versus time data

Another data set concerns the target T2, JAK3 (Homo sapiens, UniProt P52333).
T2 construct: purchased Life Technologies PV3855
T2 sequence (P52333 1-1124): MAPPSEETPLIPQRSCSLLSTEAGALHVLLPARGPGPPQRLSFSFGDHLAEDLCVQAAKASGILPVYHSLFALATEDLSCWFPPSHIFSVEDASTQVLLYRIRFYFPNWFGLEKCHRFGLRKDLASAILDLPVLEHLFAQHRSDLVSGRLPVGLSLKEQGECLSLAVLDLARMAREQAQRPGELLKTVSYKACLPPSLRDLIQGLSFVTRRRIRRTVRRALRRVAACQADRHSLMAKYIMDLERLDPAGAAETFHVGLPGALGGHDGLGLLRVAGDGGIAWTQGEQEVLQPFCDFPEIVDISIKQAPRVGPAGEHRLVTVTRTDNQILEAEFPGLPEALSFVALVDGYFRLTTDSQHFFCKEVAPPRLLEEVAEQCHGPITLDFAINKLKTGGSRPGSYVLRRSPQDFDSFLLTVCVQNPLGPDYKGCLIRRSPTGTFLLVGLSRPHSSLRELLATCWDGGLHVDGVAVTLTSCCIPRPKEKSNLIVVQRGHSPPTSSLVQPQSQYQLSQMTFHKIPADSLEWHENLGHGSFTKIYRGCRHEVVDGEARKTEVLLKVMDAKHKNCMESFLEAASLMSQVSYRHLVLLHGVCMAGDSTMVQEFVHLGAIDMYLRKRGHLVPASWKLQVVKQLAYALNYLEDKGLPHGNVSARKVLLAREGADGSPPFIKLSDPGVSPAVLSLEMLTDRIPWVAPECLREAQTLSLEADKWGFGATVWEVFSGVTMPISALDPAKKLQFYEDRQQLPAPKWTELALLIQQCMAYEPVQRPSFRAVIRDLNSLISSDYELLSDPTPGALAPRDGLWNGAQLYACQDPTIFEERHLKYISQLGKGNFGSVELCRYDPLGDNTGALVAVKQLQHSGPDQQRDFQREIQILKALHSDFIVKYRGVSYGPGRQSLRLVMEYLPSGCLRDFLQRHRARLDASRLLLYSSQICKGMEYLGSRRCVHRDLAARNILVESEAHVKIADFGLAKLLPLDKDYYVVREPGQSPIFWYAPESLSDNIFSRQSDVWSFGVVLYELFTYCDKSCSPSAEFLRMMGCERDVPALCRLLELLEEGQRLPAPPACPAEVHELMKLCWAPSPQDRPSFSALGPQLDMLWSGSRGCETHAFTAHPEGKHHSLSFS
Briefly: In vitro enzyme assay (Cisbio kinase assay), JAK3. Type of data set: biochemical. To be noted: ATP 300 μM; read-out: Enzymatic assay: JAK3.

The test system of data set [2] is Salmonella typhimurium TA98 and TA100. Briefly: Mini Ames assay (TA98 and TA100). In kind it is cell-based. Particulars: TA98 & TA100, with and without metabolic activation (S9). From the text:
The Ames test in micro-method (in 6-well plates=mini Ames) follows the general principles of the standard Ames's technique. The Ames test used strains of bacteria Salmonella typhimurium that carry mutations in the genes involved in histidine synthesis. These strains are auxotrophic mutants, they require histidine for growth but cannot produce it. The assay was used to observe the ability of the test item to induce reverse mutations allowing the bacteria to grow in a histidine-free medium. The number of bacteria that revert and acquire the wild-type ability to grow in the absence of histidine can be estimated by counting the colonies that develop upon incubation. The use of different strains allows the identification of different mechanisms of gene mutation (TA98 for detection of frameshift mutations and TA100 for detection of base pair substitutions). […]
A toxicity assessment was performed on complete nutriment agar plate (with histidine) to define the highest concentration to be used in the genotoxicity assay. […] The first concentration analyzed in the well (6-well plate) was 500 μg per plate followed by 7 serial dilutions (2 times factor of dilution). […] The viability of the positive and negative controls was analyzed for each strain, in the presence or absence of metabolic activation system, and were compared with historical data to validate the study. […]
A general note: The Ames test uses bacterial strains that need an amino acid and regain growth without it when mutated back.

Data set [3] is described as follows: In vivo pharmacokinetic analysis in minipig (iv). Further details: species or system male Göttingen minipigs. To be noted: iv 1 mg/kg. The method, then: Three male Göttingen minipigs. Compound was administered intravenously to fed animals at a target dose of 1 mg/kg, dose volume 1 mL/kg, in DMSO: hydroxypropyl-p-cyclodextrin 20% in phosphate buffer 60 mM pH 7 (5:95). Blood samples were collected at various time points. Blood samples were then assayed using a method based upon protein precipitation with acetonitrile followed by LC/MS/MS analysis. Non-compartmental methods were used for pharmacokinetic analysis of blood concentration versus time data.

Molecules are shown by their SMILES. “Also recorded” adds a separate entry of the source.

Here are results for one compound from patent US12583868B2, “JAK inhibitors and methods for synthesizing and using thereof” (GALDERMA HOLDING SA, priority 2020, dated 2026).

As a reminder, the Vd is the apparent volume that relates the amount in the body to the concentration in plasma or blood.

T1 sequence (P29597 whole entry): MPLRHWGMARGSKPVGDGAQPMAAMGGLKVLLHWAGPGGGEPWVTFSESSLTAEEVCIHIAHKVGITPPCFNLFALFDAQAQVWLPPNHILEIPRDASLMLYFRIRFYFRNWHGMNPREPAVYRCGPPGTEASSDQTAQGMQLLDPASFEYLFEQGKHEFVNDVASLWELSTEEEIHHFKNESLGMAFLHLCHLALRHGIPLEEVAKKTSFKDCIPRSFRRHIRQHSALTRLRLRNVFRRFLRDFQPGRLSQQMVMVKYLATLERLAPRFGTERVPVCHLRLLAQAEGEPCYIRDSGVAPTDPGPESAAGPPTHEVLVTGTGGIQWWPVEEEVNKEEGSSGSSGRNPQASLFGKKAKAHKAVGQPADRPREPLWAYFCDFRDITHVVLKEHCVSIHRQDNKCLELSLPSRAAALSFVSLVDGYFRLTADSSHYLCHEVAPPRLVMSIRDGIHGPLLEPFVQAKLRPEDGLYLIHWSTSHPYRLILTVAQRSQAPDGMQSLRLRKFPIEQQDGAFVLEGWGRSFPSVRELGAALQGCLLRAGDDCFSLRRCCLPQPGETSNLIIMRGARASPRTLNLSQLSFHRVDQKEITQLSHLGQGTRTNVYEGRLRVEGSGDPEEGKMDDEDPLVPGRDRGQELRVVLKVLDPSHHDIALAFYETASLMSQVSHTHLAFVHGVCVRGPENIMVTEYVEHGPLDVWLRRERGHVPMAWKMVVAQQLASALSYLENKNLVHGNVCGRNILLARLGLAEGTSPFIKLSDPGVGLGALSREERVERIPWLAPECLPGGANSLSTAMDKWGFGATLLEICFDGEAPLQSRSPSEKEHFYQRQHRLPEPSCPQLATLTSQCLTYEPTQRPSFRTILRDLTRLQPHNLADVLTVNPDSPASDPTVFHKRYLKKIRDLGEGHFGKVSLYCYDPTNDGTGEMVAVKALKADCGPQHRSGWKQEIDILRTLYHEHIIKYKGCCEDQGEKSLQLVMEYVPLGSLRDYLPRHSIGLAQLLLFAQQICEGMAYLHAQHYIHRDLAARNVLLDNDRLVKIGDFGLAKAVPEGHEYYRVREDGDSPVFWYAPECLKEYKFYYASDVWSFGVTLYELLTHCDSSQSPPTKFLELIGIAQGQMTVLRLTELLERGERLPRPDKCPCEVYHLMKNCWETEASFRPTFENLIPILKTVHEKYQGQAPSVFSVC

For `O=S(=O)(N[C@H]1C[C@@H](N2CCOc3cnc4[nH]ccc4c32)C1)C1CN(C2CC2)C1` [Compound E, 1-Cyclopropyl-N-((cis)-3-(2,3-dihydropyrrolo[3′,2′:5,6]pyrido[3,4-b][1,4]oxazin-1(7H)-yl)cyclobutyl)azetidine-3-sulfonamide], the “Selectivity (S1): number of kinases out of panel” value in the data set with kinase panel (403) was 1/403. Moreover, the values for the IC50 at Tyk2 enzyme and at JAK3 were 3.45 µM and above 10 µM, respectively. In addition, the “iv PK rat: ER” value in data set [1] amounted to 67%. Moreover, the clearance in data set [1] (male, Wistar Han, whole blood, read-out: iv PK rat: Cl) was determined as 52 mL/min/kg; in data set [3] (male, Göttingen, whole blood, read-out: iv PK minipig: Cl), 48 mL/min/kg. In data set [1] (male, Wistar Han, whole blood, read-out: iv PK rat: Vd), the distribution volume (Vd) turned out to be 1.8 L/kg. In addition, in data set [1] (male, Wistar Han, whole blood, read-out: iv PK rat: t½ (converted)), the half-life was 23.4 min. The AMES entry in data set [2] is on record as “not considered to be mutagenic; also recorded: Neg/Neg”. In data set [3], the “iv PK minipig: ER” value was found to be 171%.
